Drawing on patent publication US8592594B2, “Tetrahydro-quinoline derivatives” (Hoffmann-La Roche Inc., priority 2010, dated 2013), this text covers EC50 for 28 molecules.

In the experiment the test system is recombinant AMPK proteins (α1β1γ1, α2β1γ1, α1(1-335), α1(1-394) or α2(1-394)). The experiment in a line: Scintillation Proximity Assay (SPA), AMPK activation. Format: biochemical, human. The settings on record: effective concentration of activator for 50% of maximal enzyme activity; 50 nM AMPK, 2 μM ATP, 2 μM biotin-SAMS, 30° C., 2 hours. As to the method:
Recombinant human AMPK α1β1γ1, α2β1γ1 or AMPK α subunit truncations α1(1-335), α1(1-394) and α2(1-394) were constructed, expressed and purified as described previously (Pang, T., Zhang, Z. S., Gu, M., Qiu, B. Y., Yu, L. F., Cao, P. R., Shao, W., Su, M. B., Li, J. Y., Nan, F. J., and Li, J. (2008). Rat liver AMPK heterotrimer enzyme was obtained from Upstate (Billerica, Mass., U.S.A.).
Scintillation Proximity Assay
Before the Scintillation Proximity Assay (SPA) assay, 200 nM recombinant AMPK proteins (α1β1γ1, α2β1γ1, α1(1-335), α1(1-394) or α2(1-394)) were fully phosphorylated as described previously (Pang et al., 2008). SPA reactions were performed in 96-well plates at a final volume of 50 μL containing 20 mM Tris-HCl pH 7.5, 5 mM MgCl2, 1 mM DTT, 2 μM biotin-SAMS, 2 μM ATP, 0.2 μCi/well [γ-^33P]ATP, and various amount of activator. Reactions were initiated by the addition of 50 nM recombinant AMPK proteins to the reaction solutions and incubated at 30° C. for 2 hours. After that, reactions were terminated by the addition of 40 μL stop solution containing 80 μg streptavidin-coated SPA beads per well, 50 mM ED TA, 0.1% Triton X-100 in PBS, pH 7.5 and incubated for 1 hour. Finally, a 160 μL suspension solution containing 2.4 M CsCl, 50 mM EDTA, and 0.1% Triton X-100 in PBS (pH 7.5) was added to the reaction solution to suspend SPA beads completely. SPA signals were determined with a Wallac MicroBeta plate counter (PerkinElmer) 30 min later for calculation of the amount of product formed. The amount of products formed in 2 hour was plotted against activator concentrations to determine the effective concentration of the activator (EC50) required for 50% of maximal enzyme activity.
For orientation: SPA uses beads or plates that emit light when radiolabelled molecules are held near them.
Consider `Cc1ccc(F)cc1C1CC2(CC2)c2cc(C(=O)N3CCOCC3)ccc2N1` (stereo not shown) [Example 30, [2-(5-Fluoro-2-methyl-phenyl)-spiro(cyclopropane-1,4′-1′,2′,3′,4′-tetrahydroquinolin)-6-yl]-morpholin-4-yl-methanone], for which the EC50 worked out at 2.47 µM.
For the molecule `Cc1ccc(F)cc1C1CC2(CC2)c2cc(C(=O)N3CCN(C)CC3)ccc2N1` (stereo not shown) [Example 31, [2-(5-Fluoro-2-methyl-phenyl)-spiro(cyclopropane-1,4′-1′,2′,3′,4′-tetrahydroquinolin)-6-yl]-(4-methyl-piperazin-1-yl)-methanone], the concentration for a half-maximal effect (EC50) turned out to be 2.58 µM.
In the case of `O=C(c1ccc2c(c1)C1(CC1)CC(c1cc(F)ccc1Br)N2)N1CCOCC1` (stereo not shown) [Example 32, [2-(2-Bromo-5-fluoro-phenyl)-spiro(cyclopropane-1,4′-1′,2′,3′,4′-tetrahydroquinolin)-6-yl]-morpholin-4-yl-methanone], the EC50 was 1.24 µM.
As to `CC(C)NC(=O)c1ccc2c(c1)C1(CC1)CC(c1cc(F)ccc1Br)N2` (stereo not shown) [Example 33, 2-(2-Bromo-5-fluoro-phenyl)-spiro(cyclopropane-1,4′-1′,2′,3′,4′-tetrahydroquinoline)-6-carboxylic acid isopropylamide], the EC50 came to 13.6 µM.
Take `CN(C)C(=O)c1ccc2c(c1)C1(CC1)CC(c1cc(F)ccc1Br)N2` (stereo not shown) [Example 34, 2-(2-Bromo-5-fluoro-phenyl)-spiro(cyclopropane-1,4′-1′,2′,3′,4′-tetrahydroquinoline)-6-carboxylic acid dimethylamide]: the EC50 came out at 2.71 µM.
`O=C(NC1CCC1)c1ccc2c(c1)C1(CC1)CC(c1cc(F)ccc1Br)N2` (stereo not shown) [Example 35, 2-(2-Bromo-5-fluoro-phenyl)-spiro(cyclopropane-1,4′-1′,2′,3′,4′-tetrahydroquinoline)-6-carboxylic acid cyclobutylamide]: the EC50 worked out at 6.88 µM.
As for `O=C(NC1CCC1)c1ccc2c(c1)C1(CC1)CC(c1cc(Br)ccc1F)N2` (stereo not shown) [Example 36, 2-(5-Bromo-2-fluoro-phenyl)-spiro(cyclopropane-1,4′-1′,2′,3′,4′-tetrahydroquinoline)-6-carboxylic acid cyclobutylamide], the figure is 5.63 µM; as for `O=C(NC1CC1)c1ccc2c(c1)C1(CC1)CC(c1cc(Cl)ccc1Cl)N2` (stereo not shown) [Example 37, 2-(2,5-Dichloro-phenyl)-spiro(cyclopropane-1,4′-1′,2′,3′,4′-tetrahydroquinoline)-6-carboxylic acid cyclopropylamide], 13.9 µM.
Consider `CNC(=O)c1ccc2c(c1)C1(CC1)CC(c1cc(Cl)ccc1Cl)N2` (stereo not shown) [Example 38, 2-(2,5-Dichloro-phenyl)-spiro(cyclopropane-1,4′-1′,2′,3′,4′-tetrahydroquinoline)-6-carboxylic acid methylamide], for which the EC50 was found to be 2.38 µM.
With `O=C(NC1CCC1)c1ccc2c(c1)C1(CC1)CC(c1cc(Cl)ccc1Cl)N2` (stereo not shown) [Example 39, 2-(2,5-Dichloro-phenyl)-spiro(cyclopropane-1,4′-1′,2′,3′,4′-tetrahydroquinoline)-6-carboxylic acid cyclobutylamide] the figure was 4.95 µM.
On to `O=C(c1ccc2c(c1)C1(CC1)CC(c1cc(Cl)ccc1Cl)N2)N1CCOCC1` (stereo not shown) [Example 40, [2-(2,5-Dichloro-phenyl)-spiro(cyclopropane-1,4′-1′,2′,3′,4′-tetrahydroquinolin)-6-yl]-morpholin-4-yl-methanone], for which the EC50 amounted to 3.69 µM.
As for `CC(C)NC(=O)c1ccc2c(c1)C1(CC1)CC(c1cc(Cl)ccc1Cl)N2` (stereo not shown) [Example 41, 2-(2,5-Dichloro-phenyl)-spiro(cyclopropane-1,4′-1′,2′,3′,4′-tetrahydroquinoline)-6-carboxylic acid isopropylamide], the figure is 5.17 µM; as for `CS(=O)(=O)N1CCN(C(=O)c2ccc3c(c2)C2(CC2)CC(c2cc(Cl)ccc2Cl)N3)CC1` (stereo not shown) [Example 42, [2-(2,5-Dichloro-phenyl)-spiro(cyclopropane-1,4′-1′,2′,3′,4′-tetrahydroquinolin)-6-yl]-(4-methanesulfonyl-piperazin-1-yl)-methanone], 3.77 µM.
For `O=C(NC1CCC1)c1ccc2c(c1)C1(CC1)CC(c1cc(Cl)cc(Cl)c1)N2` (stereo not shown) [Example 43, 2-(3,5-Dichloro-phenyl)-spiro(cyclopropane-1,4′-1′,2′,3′,4′-tetrahydroquinoline)-6-carboxylic acid cyclobutylamide], the EC50 was 5.86 µM.
On to `O=C(c1ccc2c(c1)C1(CC1)CC(c1cc(Cl)ccc1F)N2)N1CCOCC1` (stereo not shown) [Example 44, [2-(5-Chloro-2-fluoro-phenyl)-spiro(cyclopropane-1,4′-1′,2′,3′,4′-tetrahydroquinolin)-6-yl]-morpholin-4-yl-methanone], for which the half-maximal effective concentration (EC50) stood at 3.02 µM.
Consider `CN(C)C(=O)c1ccc2c(c1)C1(CC1)CC(c1cc(Cl)ccc1F)N2` (stereo not shown) [Example 45, 2-(5-Chloro-2-fluoro-phenyl)-spiro(cyclopropane-1,4′-1′,2′,3′,4′-tetrahydroquinoline)-6-carboxylic acid dimethylamide], for which the EC50 amounted to 1.76 µM.
For the molecule `O=C(NC1CCC1)c1ccc2c(c1)C1(CC1)CC(c1cc(Cl)ccc1F)N2` (stereo not shown) [Example 46, 2-(5-Chloro-2-fluoro-phenyl)-spiro(cyclopropane-1,4′-1′,2′,3′,4′-tetrahydroquinoline)-6-carboxylic acid cyclobutylamide], the EC50 was determined as 7.62 µM.
As to `CC(C)NC(=O)c1ccc2c(c1)C1(CC1)CC(c1cc(Cl)ccc1F)N2` (stereo not shown) [Example 47, 2-(5-Chloro-2-fluoro-phenyl)-spiro(cyclopropane-1,4′-1′,2′,3′,4′-tetrahydroquinoline)-6-carboxylic acid isopropylamide], the EC50 was determined as 11.4 µM.
Take `O=C(c1ccc2c(c1)C1(CC1)CC(c1cc(F)ccc1Br)N2)N1CCNCC1` (stereo not shown) [Example 48]: the EC50 was determined as 2.1 µM.
With `CNC(=O)c1ccc2c(c1)C1(CC1)CC(c1c(C)cc(F)cc1Br)N2` (stereo not shown) [Example 49, 2-(2-Bromo-4-fluoro-6-methyl-phenyl)-spiro(cyclopropane-1,4′-1′,2′,3′,4′-tetrahydroquinoline)-6-carboxylic acid methylamide] the figure was 3.23 µM; with `CN(C)C(=O)c1ccc2c(c1)C(C)(C)CC(C(C)(C)c1ccccc1)N2` (stereo not shown) [Example 50, 4,4-Dimethyl-2-(1-methyl-1-phenyl-ethyl)-1,2,3,4-tetrahydro-quinoline-6-carboxylic acid dimethylamide], 2.87 µM.
In the case of `CN(C)C(=O)c1ccc2c(c1)C1(CCCC1)CC(c1cc(F)ccc1Br)N2` (stereo not shown) [Example 51, 2-(2-Bromo-5-fluoro-phenyl)-spiro(cyclopentane-1,4′-1′,2′,3′,4′-tetrahydroquinoline)-6-carboxylic acid dimethylamide], the EC50 is 3.58 µM.
As to `O=C(NC1CC1)c1ccc2c(c1)C1(CCCC1)CC(c1cc(F)ccc1Br)N2` (stereo not shown) [Example 52, 2-(2-Bromo-5-fluoro-phenyl)-spiro(cyclopentane-1,4′-1′,2′,3′,4′-tetrahydroquinoline)-6-carboxylic acid cyclopropylamide], the EC50 was 4.84 µM.
With `CN1CCC(NC(=O)c2ccc3c(c2)C2(CCCC2)CC(c2cc(F)ccc2Br)N3)CC1` (stereo not shown) [Example 53, 2-(2-Bromo-5-fluoro-phenyl)-spiro(cyclopentane-1,4′-1′,2′,3′,4′-tetrahydroquinoline)-6-carboxylic acid (1-methyl-piperidin-4-yl)-amide] the figure was 1.38 µM; with `O=C(NC1CCC1)c1ccc2c(c1)C1(CCCC1)CC(c1cc(F)ccc1Br)N2` (stereo not shown) [Example 54, 2-(2-Bromo-5-fluoro-phenyl)-spiro(cyclopentane-1,4′-1′,2′,3′,4′-tetrahydroquinoline)-6-carboxylic acid cyclobutylamide], 2.61 µM.
Regarding `CNC(=O)c1ccc2c(c1)C1(CCCC1)CC(c1cc(F)ccc1Br)N2` (stereo not shown) [Example 55, 2-(2-Bromo-5-fluoro-phenyl)-spiro(cyclopentane-1,4′-1′,2′,3′,4′-tetrahydroquinoline)-6-carboxylic acid methylamide], the EC50 was 3.7 µM.
With `O=C(NCCO)c1ccc2c(c1)C1(CCCC1)CC(c1cc(F)ccc1Br)N2` (stereo not shown) [Example 56, 2-(2-Bromo-5-fluoro-phenyl)-spiro(cyclopentane-1,4′-1′,2′,3′,4′-tetrahydroquinoline)-6-carboxylic acid (2-hydroxy-ethyl)-amide] the figure was 3.38 µM.
As to `O=C(c1ccc2c(c1)C1(CCCC1)CC(c1cc(F)ccc1Br)N2)N1CCOCC1` (stereo not shown) [Example 57, [2-(2-Bromo-5-fluoro-phenyl)-spiro(cyclopentane-1,4′-1′,2′,3′,4′-tetrahydroquinolin)-6-yl]-morpholin-4-yl-methanone], the concentration for a half-maximal effect (EC50) amounted to 2.36 µM.

In general, EC50 refers to the midpoint of the concentration-response curve.
